Laboratory results as given in ChEMBL document CHEMBL6103641, “Palladium-Catalyzed Late-Stage Functionalization of Natural Antitumor Drug: Synthesis and Bioactivity of 5-Aryl Camptothecins” (J Nat Prod, 2025).
Activity calls are given as the source filed them. The rule behind the calls is not given here.

Experiments:
MCF7 [1] = assay: Cytotoxicity against human MCF7 cells assessed as inhibition of cell viability incubated for 24 hrs by MTT assay; type: functional, cell-based; details: MCF7, 24 h
HCT-116 [2] = assay: Cytotoxicity against human HCT-116 cells assessed as inhibition of cell viability incubated for 24 hrs by MTT assay; type: functional, cell-based; details: HCT-116, 24 h
A549 = assay: Cytotoxicity against human A549 cells assessed as inhibition of cell viability incubated for 24 hrs by MTT assay; type: functional, cell-based; details: A549, 24 h
MCF7 [3] = assay: Antiproliferative activity against human MCF7 cells assessed as inhibition of colony growth at 2 uM incubated for 24 hrs by crystal violet staining based analysis; type: functional, cell-based
MCF7 [4] = assay: Induction of apoptosis in human MCF7 cells at 2 uM incubated for 24 hrs by Annexin V-FITC/PI staining based flow cytometric analysis; type: functional, cell-based
MCF7 [5] = assay: Antiproliferative activity against human MCF7 cells assessed as inhibition of colony growth incubated for 24 hrs by crystal violet staining based analysis; type: functional, cell-based; details: dose 0.25-2 µM
MCF7 [6] = assay: Induction of cell cycle arrest in human MCF7 cells assessed as accumulation at G2/M phase at 0.25 to 2 uM incubated for 24 hrs by PI staining based flow cytometry; type: functional; details: dose 0.25-2 µM
HCT-116 [7] = assay: Induction of apoptosis in human HCT-116 cells assessed as downregulation of Bcl-2 expression at 0.25 to 2 uM incubated for 24 hrs by western blot analysis; type: functional, cell-based; details: dose 0.25-2 µM
HCT-116 [8] = assay: Induction of apoptosis in human HCT-116 cells assessed as upregulation of cleaved caspase-3 expression at 0.25 to 2 uM incubated for 24 hrs by western blot analysis; type: functional, cell-based; details: dose 0.25-2 µM
HCT-116 [9] = assay: Antiproliferative activity against human HCT-116 cells assessed as inhibition of colony growth at 2 uM incubated for 24 hrs by crystal violet staining based analysis; type: functional, cell-based
HCT-116 [10] = assay: Induction of apoptosis in human HCT-116 cells at 2 uM incubated for 24 hrs by Annexin V-FITC/PI staining based flow cytometric analysis; type: functional, cell-based
HCT-116 [11] = assay: Antiproliferative activity against human HCT-116 cells assessed as inhibition of colony growth incubated for 24 hrs by crystal violet staining based analysis; type: functional, cell-based; details: dose 0.25-2 µM
HCT-116 [12] = assay: Induction of cell cycle arrest in human HCT-116 cells assessed as accumulation at G2/M phase at 0.25 to 2 uM incubated for 24 hrs by PI staining based flow cytometry; type: functional; details: dose 0.25-2 µM
HCT-116 [13] = assay: Induction of apoptosis in human HCT-116 cells assessed as upregulation of Bax expression at 0.25 to 2 uM incubated for 24 hrs by western blot analysis; type: functional, cell-based; details: dose 0.25-2 µM

Compound | IC50 (MCF7 [1]) | IC50 (HCT-116 [2]) | IC50 (A549) | further results
CC[C@@]1(O)C(=O)OCc2c1cc1n(c2=O)[C@H](c2ccc(Cl)cc2)c2cc3ccccc3nc2-1 | > 10000 nM | 600 nM | > 10000 nM | –
C=CC[C@H]1c2cc3ccccc3nc2-c2cc3c(c(=O)n21)COC(=O)[C@]3(O)CC | > 10000 nM | 400 nM | > 10000 nM | –
C=Cc1ccc([C@H]2c3cc4ccccc4nc3-c3cc4c(c(=O)n32)COC(=O)[C@]4(O)CC)cc1 | 600 nM | 800 nM | > 10000 nM | –
CCOc1ccc([C@H]2c3cc4ccccc4nc3-c3cc4c(c(=O)n32)COC(=O)[C@]4(O)CC)cc1 | > 10000 nM | > 10000 nM | 100 nM | –
CC[C@@]1(O)C(=O)OCc2c1cc1n(c2=O)[C@@H](c2cccc(F)c2C)c2cc3ccccc3nc2-1 | > 10000 nM | 900 nM | 10 nM | –
CC[C@@]1(O)C(=O)OCc2c1cc1n(c2=O)[C@H](c2ccc3c(c2)OCO3)c2cc3ccccc3nc2-1 | > 10000 nM | 50 nM | 100 nM | –
CC[C@@]1(O)C(=O)OCc2c1cc1n(c2=O)[C@@H](c2cccc(-c3ccccc3)c2)c2cc3ccccc3nc2-1 | > 10000 nM | > 10000 nM | 8900 nM | –
CC[C@@]1(O)C(=O)OCc2c1cc1n(c2=O)[C@H](c2ccc3ccccc3c2)c2cc3ccccc3nc2-1 | > 10000 nM | > 10000 nM | 700 nM | –
CC[C@@]1(O)C(=O)OCc2c1cc1n(c2=O)[C@H](c2ccccc2C(C)C)c2cc3ccccc3nc2-1 | 9200 nM | 100 nM | 10 nM | –
CC[C@@]1(O)C(=O)OCc2c1cc1n(c2=O)[C@H](c2c(OC)cccc2OC)c2cc3ccccc3nc2-1 | 400 nM | > 10000 nM | > 10000 nM | –
CC[C@@]1(O)C(=O)OCc2c1cc1n(c2=O)[C@@H](c2c(C)cccc2C)c2cc3ccccc3nc2-1 | > 10000 nM | 1100 nM | > 10000 nM | –
CC[C@@]1(O)C(=O)OCc2c1cc1n(c2=O)[C@H](c2ccc(C(C)(C)C)cc2)c2cc3ccccc3nc2-1 | > 10000 nM | 200 nM | > 10000 nM | –
CC[C@@]1(O)C(=O)OCc2c1cc1n(c2=O)[C@@H](c2ccccc2C(C)C)c2cc3ccccc3nc2-1 | > 10000 nM | 600 nM | 10 nM | –
CC[C@@]1(O)C(=O)OCc2c1cc1n(c2=O)[C@@H](c2cccc(OC)c2)c2cc3ccccc3nc2-1 | > 10000 nM | > 10000 nM | 1100 nM | –
CC[C@@]1(O)C(=O)OCc2c1cc1n(c2=O)[C@@H](c2ccc(F)cc2)c2cc3ccccc3nc2-1 | 100 nM | > 10000 nM | > 10000 nM | –
C=CC[C@@H]1c2cc3ccccc3nc2-c2cc3c(c(=O)n21)COC(=O)[C@]3(O)CC | 900 nM | 300 nM | > 10000 nM | –
CC[C@@]1(O)C(=O)OCc2c1cc1n(c2=O)[C@H](c2cccc(OC)c2)c2cc3ccccc3nc2-1 | > 10000 nM | > 10000 nM | 200 nM | –
CC[C@@]1(O)C(=O)OCc2c1cc1n(c2=O)[C@@H](c2ccc(Cl)cc2)c2cc3ccccc3nc2-1 | > 10000 nM | > 10000 nM | > 10000 nM | –
CC[C@@]1(O)C(=O)OCc2c1cc1n(c2=O)[C@H](CC=C(C)C)c2cc3ccccc3nc2-1 | 100 nM | 600 nM | 1200 nM | –
CC[C@@]1(O)C(=O)OCc2c1cc1n(c2=O)[C@@H](c2cccc(C(F)(F)F)c2)c2cc3ccccc3nc2-1 | > 10000 nM | > 10000 nM | > 10000 nM | –
CC[C@@]1(O)C(=O)OCc2c1cc1n(c2=O)[C@@H](c2ccccc2Cl)c2cc3ccccc3nc2-1 | 100 nM | > 10000 nM | > 10000 nM | –
CC[C@@]1(O)C(=O)OCc2c1cc1n(c2=O)[C@H](c2cccc(F)c2C)c2cc3ccccc3nc2-1 | > 10000 nM | 10400 nM | 10 nM | –
CCOc1ccc([C@@H]2c3cc4ccccc4nc3-c3cc4c(c(=O)n32)COC(=O)[C@]4(O)CC)cc1 | > 10000 nM | > 10000 nM | 100 nM | –

Compound | IC50 (MCF7 [1]) | IC50 (HCT-116 [2]) | IC50 (A549) | further results
CC[C@@]1(O)C(=O)OCc2c1cc1n(c2=O)[C@H](c2cc(C)cc(C)c2)c2cc3ccccc3nc2-1 | 40 nM | > 10000 nM | > 10000 nM | Activity (MCF7 [3]): Active; Superior Activity Compared To Camptothecin Observed; Activity (MCF7 [4]): Active; Superior Activity Compared To Camptothecin Observed; Activity (MCF7 [5]): Dose-dependent-effect; Activity (MCF7 [6]): Active
CCc1ccc(-c2ccc([C@@H]3c4cc5ccccc5nc4-c4cc5c(c(=O)n43)COC(=O)[C@]5(O)CC)cc2)cc1 | > 10000 nM | 200 nM | 800 nM | –
CC[C@@]1(O)C(=O)OCc2c1cc1n(c2=O)[C@H](c2ccccc2C)c2cc3ccccc3nc2-1 | > 10000 nM | 200 nM | > 10000 nM | –
CC[C@@]1(O)C(=O)OCc2c1cc1n(c2=O)[C@@H](c2ccc3c(c2)OCO3)c2cc3ccccc3nc2-1 | > 10000 nM | > 10000 nM | 500 nM | –
C=Cc1ccc([C@@H]2c3cc4ccccc4nc3-c3cc4c(c(=O)n32)COC(=O)[C@]4(O)CC)cc1 | 100 nM | 900 nM | > 10000 nM | –
CC[C@@]1(O)C(=O)OCc2c1cc1n(c2=O)[C@H](c2ccccc2Cl)c2cc3ccccc3nc2-1 | 600 nM | > 10000 nM | > 10000 nM | –
CC[C@@]1(O)C(=O)OCc2c1cc1n(c2=O)[C@H](c2c(C)cccc2C)c2cc3ccccc3nc2-1 | > 10000 nM | 300 nM | > 10000 nM | –
CCOC(=O)/C=C/C[C@@H]1c2cc3ccccc3nc2-c2cc3c(c(=O)n21)COC(=O)[C@]3(O)CC | 400 nM | 300 nM | 10 nM | –
CC[C@@]1(O)C(=O)OCc2c1cc1n(c2=O)[C@H](c2ccccc2F)c2cc3ccccc3nc2-1 | > 10000 nM | 500 nM | 10 nM | –
CC[C@@]1(O)C(=O)OCc2c1cc1n(c2=O)[C@H](c2cccc(CBr)c2)c2cc3ccccc3nc2-1 | > 10000 nM | 9300 nM | 1100 nM | –
CC[C@@]1(O)C(=O)OCc2c1cc1n(c2=O)[C@@H](c2cc(C)cc(C)c2)c2cc3ccccc3nc2-1 | 160 nM | > 10000 nM | > 10000 nM | –
CC[C@@]1(O)C(=O)OCc2c1cc1n(c2=O)[C@@H](c2c(OC)cccc2OC)c2cc3ccccc3nc2-1 | 400 nM | 50 nM | > 10000 nM | Activity (HCT-116 [7]): Active; Activity (HCT-116 [8]): Active; Activity (HCT-116 [9]): Active; Superior Activity Compared To Camptothecin Observed; Activity (HCT-116 [10]): Active; Superior Activity Compared To Camptothecin Observed; Activity (HCT-116 [11]): Dose-dependent-effect; Activity (HCT-116 [12]): Active; Activity (HCT-116 [13]): Active
CC[C@@]1(O)C(=O)OCc2c1cc1n(c2=O)[C@H](c2cccc(C(F)(F)F)c2)c2cc3ccccc3nc2-1 | 70 nM | 1200 nM | > 10000 nM | –
CC[C@@]1(O)C(=O)OCc2c1cc1n(c2=O)[C@@H](c2ccccc2F)c2cc3ccccc3nc2-1 | > 10000 nM | > 10000 nM | 40 nM | –
CC[C@@]1(O)C(=O)OCc2c1cc1n(c2=O)[C@H](c2cccc(-c3ccccc3)c2)c2cc3ccccc3nc2-1 | > 10000 nM | > 10000 nM | 900 nM | –
CC[C@@]1(O)C(=O)OCc2c1cc1n(c2=O)[C@H](c2ccc(F)cc2)c2cc3ccccc3nc2-1 | 100 nM | > 10000 nM | 400 nM | –
CC[C@@]1(O)C(=O)OCc2c1cc1n(c2=O)[C@@H](CC=C(C)C)c2cc3ccccc3nc2-1 | 60 nM | 500 nM | 20 nM | –
CC[C@@]1(O)C(=O)OCc2c1cc1n(c2=O)[C@@H](c2ccc(-c3cccc4ccccc34)cc2)c2cc3ccccc3nc2-1 | > 10000 nM | > 10000 nM | > 10000 nM | –
CC[C@@]1(O)C(=O)OCc2c1cc1n(c2=O)[C@@H](c2ccccc2C)c2cc3ccccc3nc2-1 | > 10000 nM | 200 nM | > 10000 nM | –
CC[C@@]1(O)C(=O)OCc2c1cc1n(c2=O)Cc2cc3ccccc3nc2-1 [CAMPTOTHECIN] | 900 nM | 300 nM | 300 nM | –
CC[C@@]1(O)C(=O)OCc2c1cc1n(c2=O)[C@H](c2ccc(-c3cccc4ccccc34)cc2)c2cc3ccccc3nc2-1 | 1100 nM | 700 nM | > 10000 nM | –
CCOC(=O)/C=C/C[C@H]1c2cc3ccccc3nc2-c2cc3c(c(=O)n21)COC(=O)[C@]3(O)CC | > 10000 nM | 400 nM | 10 nM | –
CC[C@@]1(O)C(=O)OCc2c1cc1n(c2=O)[C@H](c2ccc3c(c2)OCCO3)c2cc3ccccc3nc2-1 | > 10000 nM | 80 nM | 100 nM | –
